This is an account of results in article PMC4475277 (Chemistry & biology, 2015).

One assay concerns the target T1, bsNOS (WT) (Bacillus subtilis, UniProt O34453).
T1 sequence (O34453 1-363): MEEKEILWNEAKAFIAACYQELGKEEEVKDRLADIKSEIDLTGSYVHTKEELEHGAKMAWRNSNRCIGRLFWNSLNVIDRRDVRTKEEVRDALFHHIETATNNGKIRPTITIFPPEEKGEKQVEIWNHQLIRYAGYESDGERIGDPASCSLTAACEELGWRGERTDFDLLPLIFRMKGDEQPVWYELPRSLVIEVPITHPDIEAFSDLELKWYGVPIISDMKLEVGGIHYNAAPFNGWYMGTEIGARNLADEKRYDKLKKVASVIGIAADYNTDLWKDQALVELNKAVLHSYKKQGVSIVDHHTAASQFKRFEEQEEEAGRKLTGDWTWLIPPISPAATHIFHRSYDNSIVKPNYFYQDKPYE
The conditions noted are these: read-out: WT - KS; imidazole displacement; ref Wang et al., 2004; cited from earlier work.

Another assay deals with I218V bsNOS (Bacillus subtilis, UniProt O34453, I218V). The following applies: read-out: I218V - KS; imidazole displacement; ref Wang et al., 2004; cited from earlier work.
I218V bsNOS, sequence (O34453 whole entry I218V): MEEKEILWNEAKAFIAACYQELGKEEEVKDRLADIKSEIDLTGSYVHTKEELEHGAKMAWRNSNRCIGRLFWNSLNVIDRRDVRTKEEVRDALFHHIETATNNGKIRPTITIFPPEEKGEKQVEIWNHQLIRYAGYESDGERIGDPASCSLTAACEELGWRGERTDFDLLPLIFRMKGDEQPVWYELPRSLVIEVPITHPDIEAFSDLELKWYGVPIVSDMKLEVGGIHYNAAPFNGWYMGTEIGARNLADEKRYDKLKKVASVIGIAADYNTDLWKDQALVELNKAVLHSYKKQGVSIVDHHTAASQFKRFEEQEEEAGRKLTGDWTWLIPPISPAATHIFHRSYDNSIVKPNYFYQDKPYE
In assay [1] the test system is bBiDomain (a chimera of bsNOS and redox partner YkuN). Nature of the assay: bBiDomain single time point bacterial NOS activity inhibition. It counts as biochemical, Bacillus subtilis. The conditions noted are these: inhibitor 30 µM, NOHA 200 µM, 4 min at 35 °C.

For the molecule `N=C(N)NCCC[C@H](N)C(=O)O` [L-Arg], the Kd at bsNOS (WT) is 4.8 ± 0.1 µM; on I218V bsNOS, 2 ± 0.2 µM.

Consider `NC(=NCCC[C@H](N)C(=O)O)N[N+](=O)[O-]` [L-NNA], for which the “% nitrite (nitrite with inhibitor divided by nitrite without inhibitor)” value in assay [1] was found to be 40.9 ± 5.3 % nitrite.
